Activity calls are given as the source filed them.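 How the source made its calls: active means EGR1 protein level shifted at least 30% up or down versus solvent-only cells; inactive means shift under 30% either way.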

This note sets out measurements from PubChem BioAssay AID588657 (The Scripps Research Institute Molecular Screening Center, 2011).

Chain of Early growth response protein 1 (Homo sapiens) (P18146 whole entry, looked up): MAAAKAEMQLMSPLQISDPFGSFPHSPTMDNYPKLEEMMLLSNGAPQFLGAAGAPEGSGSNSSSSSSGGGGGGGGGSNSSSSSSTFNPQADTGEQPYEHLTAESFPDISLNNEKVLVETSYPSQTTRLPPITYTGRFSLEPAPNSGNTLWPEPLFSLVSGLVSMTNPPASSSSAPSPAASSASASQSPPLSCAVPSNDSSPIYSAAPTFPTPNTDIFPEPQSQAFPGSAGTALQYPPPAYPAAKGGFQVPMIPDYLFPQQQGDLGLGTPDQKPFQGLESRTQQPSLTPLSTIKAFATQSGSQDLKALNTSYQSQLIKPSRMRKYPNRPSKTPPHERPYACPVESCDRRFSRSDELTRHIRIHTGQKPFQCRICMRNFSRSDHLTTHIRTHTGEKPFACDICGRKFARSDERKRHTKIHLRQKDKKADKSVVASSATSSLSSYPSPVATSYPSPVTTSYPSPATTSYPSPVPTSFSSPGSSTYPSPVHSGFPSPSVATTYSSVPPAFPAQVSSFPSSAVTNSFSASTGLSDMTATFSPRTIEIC

The assay concerns the target Early growth response protein 1 (Homo sapiens) (UniProt P18146). The experiment in a line: altered EGR1 protein amount, HT29 – cell-based, HT29 colorectal carcinoma, chemiluminescent western blot, counter-screen for KLF5 inhibitor project, late-stage follow-up (AID 588657). The settings on record: HT29 cells, 24 h, at 10 µM, active compounds read high.
Broadly, the inhibition is the change of the read-out against control, counted positive when it falls. As for `CN(C(=O)CNC(=O)/C=C/c1cccc(Cl)c1)C1CCS(=O)(=O)C1` (stereo not drawn), the inhibition was 9.34% (inactive).

As to `CN(C(=O)COC(=O)/C=C/c1cccc([N+](=O)[O-])c1)C1CCS(=O)(=O)C1` (stereo not drawn), the inhibition is 29.7%.

For the molecule `CN(C(=O)CNC(=O)/C=C/c1cccc(Cl)c1)C1CCS(=O)(=O)CC1`, the inhibition is 64.5%.
